This note sets out measurements from publication PMC9643419 (Nature Communications, 2022).

In assay [1] the target is TEAD1 (Homo sapiens, UniProt P28347). The assay is described as follows: cell-based TEAD1 palmitoylation (alkyne palmitic acid labelling, HEK293A).
Assay [2] has as its target TEAD2 (Homo sapiens, UniProt Q15562). Kind of assay: in vitro autopalmitoylation of recombinant TEAD2 with alkyne palmitoyl-CoA, click/streptavidin blot. Type of assay: biochemical.
Assay [3] concerns the target TEAD4 (Homo sapiens, UniProt Q15561). Kind of assay: TEAD4 biochemical palmitoylation assay.

Chain of TEAD1 (P28347 whole entry): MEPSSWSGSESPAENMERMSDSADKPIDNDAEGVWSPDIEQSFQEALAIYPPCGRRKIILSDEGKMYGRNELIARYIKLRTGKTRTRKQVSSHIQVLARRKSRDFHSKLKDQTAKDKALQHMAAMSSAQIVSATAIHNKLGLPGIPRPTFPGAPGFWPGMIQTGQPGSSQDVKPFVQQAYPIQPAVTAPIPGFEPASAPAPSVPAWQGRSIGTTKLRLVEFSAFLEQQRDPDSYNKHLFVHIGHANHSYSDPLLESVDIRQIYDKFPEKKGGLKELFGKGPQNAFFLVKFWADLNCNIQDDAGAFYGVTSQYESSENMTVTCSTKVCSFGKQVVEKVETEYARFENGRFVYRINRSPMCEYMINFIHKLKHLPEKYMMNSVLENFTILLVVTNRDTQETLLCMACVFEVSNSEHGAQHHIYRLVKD
Chain of TEAD2 (Q15562 217-447): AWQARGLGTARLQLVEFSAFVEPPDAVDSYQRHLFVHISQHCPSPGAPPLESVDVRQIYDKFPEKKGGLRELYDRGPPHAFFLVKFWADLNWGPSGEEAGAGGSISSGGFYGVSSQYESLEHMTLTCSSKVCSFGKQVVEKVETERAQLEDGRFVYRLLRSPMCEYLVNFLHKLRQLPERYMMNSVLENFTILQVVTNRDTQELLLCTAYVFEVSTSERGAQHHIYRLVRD
Chain of TEAD4 (Q15561 whole entry): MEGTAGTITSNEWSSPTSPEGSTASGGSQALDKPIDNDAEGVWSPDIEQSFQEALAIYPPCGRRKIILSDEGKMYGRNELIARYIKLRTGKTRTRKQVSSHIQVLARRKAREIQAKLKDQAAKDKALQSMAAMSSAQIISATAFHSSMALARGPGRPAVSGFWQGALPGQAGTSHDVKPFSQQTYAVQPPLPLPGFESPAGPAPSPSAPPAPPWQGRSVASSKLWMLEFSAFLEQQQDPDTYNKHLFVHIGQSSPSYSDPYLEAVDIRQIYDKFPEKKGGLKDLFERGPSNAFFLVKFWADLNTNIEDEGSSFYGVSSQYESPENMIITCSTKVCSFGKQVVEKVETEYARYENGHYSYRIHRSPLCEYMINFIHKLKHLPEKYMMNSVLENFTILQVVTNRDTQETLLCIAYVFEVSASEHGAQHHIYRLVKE

For `O=C(CSc1nnc[nH]1)Nc1ccc(C23CC4CC(CC(C4)C2)C3)cc1` [MGH-CP1, 2-((4H−1,2,4-triazol-3-yl)thio)-N-(4-((1 S,3 R,5 S)-adamantan-1-yl)phenyl)acetamide], the “cell-based TEAD1 palmitoylation (alkyne palmitic acid labelling, HEK293A)” value in assay [1] is “MGH-CP12 inhibits TEAD1 palmitoylation in cells more potently than MGH-CP1 (Fig. 1d)”.

Turning to `O=C(CSc1nncs1)Nc1ccc(C23CC4CC(CC(C4)C2)C3)cc1` [MGH-CP28, 2-((1,3,4-thiadiazol-2-yl)thio)-N-(4-((1 S,3 R,5 S)-adamantan-1-yl)phenyl)acetamide], in assay [2], the 50% inhibitory concentration (IC50) worked out at 0.617 µM.

In the case of `O=C(CSc1nnc[nH]1)Nc1ccc(C23CC4CC(CC(C4)C2)C3)cc1Br` [MGH-CP12, 2-((4H−1,2,4-triazol-3-yl)thio)-N-(4-((1 S,3 R,5 S)-adamantan-1-yl)−2-bromophenyl)acetamide], the results for the 50% inhibitory concentration (IC50) in assay [2] and in assay [3] were 0.106 µM and 0.852 µM, respectively. For the same molecule, the “cell-based TEAD1 palmitoylation (alkyne palmitic acid labelling, HEK293A)” value in assay [1] was “MGH-CP12 inhibits TEAD1 palmitoylation in cells more potently than MGH-CP1 (Fig. 1d)”.

Broadly, the IC50 is the concentration that inhibits the measured activity by half.
